Source: ChEMBL document CHEMBL2203132, “Synthesis and antibiofilm activity of marine natural product-based 4-thiazolidinones derivatives” (2012)
In brackets after ≈: the same amount, converted by molar mass.

Legend:
Type in all cases: functional
[1] = system: Enterococcus faecalis; assay: Antibiofilm activity against Enterococcus faecalis ATCC 29212 biofilms incubated at 37 degC for 16 hrs; settings: ATCC 29212, 16 h
[2] = system: Staphylococcus aureus; assay: Antibiofilm activity against Staphylococcus aureus ATCC 29213 biofilms incubated at 37 degC for 16 hrs; settings: ATCC 29213, 16 h
[3] = system: Staphylococcus epidermidis; assay: Antibiofilm activity against Staphylococcus epidermidis ATCC 12228 biofilms incubated at 37 degC for 16 hrs; settings: ATCC 12228, 16 h
[4] = system: Enterococcus faecalis; assay: Antimicrobial activity against Enterococcus faecalis ATCC 29212 using sub-cultures from MIC method grown subsequently on Mueller-Hinton agar plates at 37 degC for 24 hrs; settings: ATCC 29212, 24 h
[5] = system: Staphylococcus epidermidis; assay: Antimicrobial activity against Staphylococcus epidermidis ATCC 12228 using sub-cultures from MIC method grown subsequently on Mueller-Hinton agar plates at 37 degC for 24 hrs; settings: ATCC 12228, 24 h
[6] = system: Staphylococcus aureus; assay: Bactericidal activity against Staphylococcus aureus ATCC 29213 using sub-cultures from MIC method grown subsequently on Mueller-Hinton agar plates at 37 degC for 24 hrs; settings: ATCC 29213, 24 h
[7] = system: Staphylococcus epidermidis; assay: Antimicrobial activity against Staphylococcus epidermidis ATCC 12228 by broth microdilution method
[8] = system: Enterococcus faecalis; assay: Antimicrobial activity against Enterococcus faecalis ATCC 29212 by broth microdilution method
[9] = system: Staphylococcus aureus; assay: Antimicrobial activity against Staphylococcus aureus ATCC 29213 by broth microdilution method
[10] = system: Staphylococcus aureus; assay: Potency index, ratio of MIC for vancomycin to MIC for compound against Staphylococcus aureus ATCC 29213 biofilms incubated at 37 degC for 16 hrs

MIC [1]	MIC [2]	MIC [3]	MIC [7]	MIC [8]	MIC [9]	SMILES	MBC [4]	MBC [5]	MBC [6]	Ratio [10]
12.5 µg/mL (≈ 27.2 µM)	3.12 µg/mL (≈ 6.81 µM)	12.5 µg/mL (≈ 27.2 µM)	3.12 µg/mL (≈ 6.81 µM)	12.5 µg/mL (≈ 27.2 µM)	1.56 µg/mL (≈ 3.4 µM)	Cn1c(C(=O)NN2C(=O)CSC2c2ccccc2)cc(Br)c1Br (stereo not given)	25 µg/mL (≈ 54.4 µM)	6.25 µg/mL (≈ 13.6 µM)	6.25 µg/mL (≈ 13.6 µM)	
6.25 µg/mL (≈ 12.8 µM)	0.78 µg/mL (≈ 1.59 µM)	3.12 µg/mL (≈ 6.39 µM)	1.56 µg/mL (≈ 3.19 µM)	6.25 µg/mL (≈ 12.8 µM)	0.78 µg/mL (≈ 1.59 µM)	COc1ccc(C2SCC(=O)N2NC(=O)c2cc(Br)c(Br)n2C)cc1 (stereo not given)	25 µg/mL (≈ 51.1 µM)	3.12 µg/mL (≈ 6.39 µM)	6.25 µg/mL (≈ 12.8 µM)	3
12.5 µg/mL (≈ 24.8 µM)	0.78 µg/mL (≈ 1.55 µM)	3.12 µg/mL (≈ 6.2 µM)	1.56 µg/mL (≈ 3.09 µM)	12.5 µg/mL (≈ 24.8 µM)	0.78 µg/mL (≈ 1.55 µM)	Cn1c(C(=O)NN2C(=O)CSC2c2ccc([N+](=O)[O-])cc2)cc(Br)c1Br (stereo not given)	25 µg/mL (≈ 49.6 µM)	6.25 µg/mL (≈ 12.4 µM)	6.25 µg/mL (≈ 12.4 µM)	3
12.5 µg/mL (≈ 24.7 µM)	3.12 µg/mL (≈ 6.19 µM)	3.12 µg/mL (≈ 6.19 µM)	1.56 µg/mL (≈ 3.09 µM)	3.12 µg/mL (≈ 6.19 µM)	1.56 µg/mL (≈ 3.09 µM)	COc1ccc(C2SCC(=O)N2NC(=O)c2cc(Br)c(Br)n2C)cc1O (stereo not given)	12.5 µg/mL (≈ 24.7 µM)	6.25 µg/mL (≈ 12.4 µM)	6.25 µg/mL (≈ 12.4 µM)	
12.5 µg/mL (≈ 25.4 µM)	1.56 µg/mL (≈ 3.18 µM)	3.12 µg/mL (≈ 6.36 µM)	1.56 µg/mL (≈ 3.18 µM)	6.25 µg/mL (≈ 12.7 µM)	0.78 µg/mL (≈ 1.59 µM)	Cn1c(C(=O)NN2C(=O)CSC2c2cc(O)ccc2O)cc(Br)c1Br (stereo not given)	12.5 µg/mL (≈ 25.4 µM)	3.12 µg/mL (≈ 6.36 µM)	3.12 µg/mL (≈ 6.36 µM)	2
12.5 µg/mL (≈ 26.2 µM)	1.56 µg/mL (≈ 3.27 µM)	3.12 µg/mL (≈ 6.55 µM)	1.56 µg/mL (≈ 3.27 µM)	3.12 µg/mL (≈ 6.54 µM)	0.78 µg/mL (≈ 1.63 µM)	Cn1c(C(=O)NN2C(=O)CSC2c2ccc(F)cc2)cc(Br)c1Br (stereo not given)	12.5 µg/mL (≈ 26.2 µM)	3.12 µg/mL (≈ 6.55 µM)	3.12 µg/mL (≈ 6.55 µM)	2
12.5 µg/mL (≈ 25.3 µM)	1.56 µg/mL (≈ 3.16 µM)	3.12 µg/mL (≈ 6.33 µM)	1.56 µg/mL (≈ 3.16 µM)	12.5 µg/mL (≈ 25.3 µM)	0.78 µg/mL (≈ 1.58 µM)	Cn1c(C(=O)NN2C(=O)CSC2c2ccc(Cl)cc2)cc(Br)c1Br (stereo not given)	25 µg/mL (≈ 50.6 µM)	3.12 µg/mL (≈ 6.33 µM)	3.12 µg/mL (≈ 6.33 µM)	2
25 µg/mL (≈ 49.7 µM)	6.25 µg/mL (≈ 12.4 µM)	12.5 µg/mL (≈ 24.8 µM)	6.25 µg/mL (≈ 12.4 µM)	50 µg/mL (≈ 99.4 µM)	3.12 µg/mL (≈ 6.21 µM)	COc1ccc(C2SCCC(=O)N2NC(=O)c2cc(Br)c(Br)n2C)cc1 (stereo not given)	100 µg/mL (≈ 199 µM)	12.5 µg/mL (≈ 24.8 µM)	6.25 µg/mL (≈ 12.4 µM)	
25 µg/mL (≈ 48.2 µM)	6.25 µg/mL (≈ 12.1 µM)	12.5 µg/mL (≈ 24.1 µM)	6.25 µg/mL (≈ 12.1 µM)	50 µg/mL (≈ 96.5 µM)	3.12 µg/mL (≈ 6.03 µM)	Cn1c(C(=O)NN2C(=O)CCSC2c2ccc([N+](=O)[O-])cc2)cc(Br)c1Br (stereo not given)	50 µg/mL (≈ 96.5 µM)	12.5 µg/mL (≈ 24.1 µM)	6.25 µg/mL (≈ 12.1 µM)	
25 µg/mL (≈ 50.9 µM)	6.25 µg/mL (≈ 12.7 µM)	12.5 µg/mL (≈ 25.4 µM)	6.25 µg/mL (≈ 12.7 µM)	25 µg/mL (≈ 50.9 µM)	3.12 µg/mL (≈ 6.36 µM)	Cn1c(C(=O)NN2C(=O)CCSC2c2ccc(F)cc2)cc(Br)c1Br (stereo not given)	50 µg/mL (≈ 102 µM)	12.5 µg/mL (≈ 25.4 µM)	12.5 µg/mL (≈ 25.4 µM)	
25 µg/mL (≈ 49.2 µM)	6.25 µg/mL (≈ 12.3 µM)	12.5 µg/mL (≈ 24.6 µM)	6.25 µg/mL (≈ 12.3 µM)	25 µg/mL (≈ 49.2 µM)	3.12 µg/mL (≈ 6.16 µM)	Cn1c(C(=O)NN2C(=O)CCSC2c2ccc(Cl)cc2)cc(Br)c1Br (stereo not given)	50 µg/mL (≈ 98.5 µM)	12.5 µg/mL (≈ 24.6 µM)	12.5 µg/mL (≈ 24.6 µM)	

Second part, the compound before the results:

SMILES	MIC [1]	MIC [2]	MIC [3]	MIC [7]	MIC [8]	MIC [9]	MBC [4]	MBC [5]	MBC [6]	Ratio [10]
COc1ccc(C2SCC(=O)N2NC(=O)c2cc(Br)c(Br)n2C)c(O)c1 (stereo not given)	12.5 µg/mL (≈ 24.7 µM)	1.56 µg/mL (≈ 3.09 µM)	3.12 µg/mL (≈ 6.19 µM)	1.56 µg/mL (≈ 3.09 µM)	12.5 µg/mL (≈ 24.7 µM)	0.78 µg/mL (≈ 1.54 µM)	25 µg/mL (≈ 49.5 µM)	3.12 µg/mL (≈ 6.19 µM)	6.25 µg/mL (≈ 12.4 µM)	2
Cn1c(C(=O)NN2C(=O)CSC2C/C=C/c2ccccc2)cc(Br)c1Br (stereo not given)	6.25 µg/mL (≈ 12.5 µM)	6.12 µg/mL (≈ 12.3 µM)	6.25 µg/mL (≈ 12.5 µM)	25 µg/mL (≈ 50.1 µM)	25 µg/mL (≈ 50.1 µM)	6.25 µg/mL (≈ 12.5 µM)	12.5 µg/mL (≈ 25 µM)	12.5 µg/mL (≈ 25 µM)	12.5 µg/mL (≈ 25 µM)	
Cn1c(C(=O)NN2C(=O)CCSC2c2ccccc2)cc(Br)c1Br (stereo not given)	25 µg/mL (≈ 52.8 µM)	12.5 µg/mL (≈ 26.4 µM)	12.5 µg/mL (≈ 26.4 µM)	6.25 µg/mL (≈ 13.2 µM)	50 µg/mL (≈ 106 µM)	12.5 µg/mL (≈ 26.4 µM)	100 µg/mL (≈ 211 µM)	12.5 µg/mL (≈ 26.4 µM)	6.25 µg/mL (≈ 13.2 µM)	
COc1ccc(C2SCCC(=O)N2NC(=O)c2cc(Br)c(Br)n2C)c(O)c1 (stereo not given)	25 µg/mL (≈ 48.1 µM)	6.25 µg/mL (≈ 12 µM)	12.5 µg/mL (≈ 24.1 µM)	6.25 µg/mL (≈ 12 µM)	25 µg/mL (≈ 48.1 µM)	3.12 µg/mL (≈ 6.02 µM)	50 µg/mL (≈ 96.3 µM)	12.5 µg/mL (≈ 24.1 µM)	6.25 µg/mL (≈ 12 µM)	
COc1ccc(C2SCCC(=O)N2NC(=O)c2cc(Br)c(Br)n2C)cc1O (stereo not given)	25 µg/mL (≈ 48.1 µM)	6.25 µg/mL (≈ 12 µM)	12.5 µg/mL (≈ 24.1 µM)	6.25 µg/mL (≈ 12 µM)	25 µg/mL (≈ 48.1 µM)	3.12 µg/mL (≈ 6.02 µM)	50 µg/mL (≈ 96.3 µM)	12.5 µg/mL (≈ 24.1 µM)	6.25 µg/mL (≈ 12 µM)	
Cn1c(C(=O)NN2C(=O)CCSC2c2cc(O)ccc2O)cc(Br)c1Br (stereo not given)	25 µg/mL (≈ 49.5 µM)	6.25 µg/mL (≈ 12.4 µM)	12.5 µg/mL (≈ 24.7 µM)	6.25 µg/mL (≈ 12.4 µM)	25 µg/mL (≈ 49.5 µM)	3.12 µg/mL (≈ 6.19 µM)	50 µg/mL (≈ 99 µM)	12.5 µg/mL (≈ 24.7 µM)	12.5 µg/mL (≈ 24.7 µM)	
Cn1c(C(=O)NN2C(=O)CCSC2C/C=C/c2ccccc2)cc(Br)c1Br (stereo not given)	50 µg/mL (≈ 97.4 µM)	25 µg/mL (≈ 48.7 µM)	25 µg/mL (≈ 48.7 µM)	6.25 µg/mL (≈ 12.2 µM)	25 µg/mL (≈ 48.7 µM)	12.5 µg/mL (≈ 24.4 µM)	50 µg/mL (≈ 97.4 µM)	12.5 µg/mL (≈ 24.4 µM)	50 µg/mL (≈ 97.4 µM)	
CN[C@H](CC(C)C)C(=O)N[C@H]1C(=O)N[C@@H](CC(N)=O)C(=O)N[C@H]2C(=O)N[C@H]3C(=O)N[C@H](C(=O)N[C@H](C(=O)O)c4cc(O)cc(O)c4-c4cc3ccc4O)[C@H](O)c3ccc(c(Cl)c3)Oc3cc2cc(c3O[C@@H]2O[C@H](CO)[C@@H](O)[C@H](O)[C@H]2O[C@H]2C[C@](C)(N)[C@H](O)[C@H](C)O2)Oc2ccc(cc2Cl)[C@H]1O [VANCOMYCIN]	3.12 µg/mL (≈ 2.16 µM)	3.12 µg/mL (≈ 2.16 µM)	3.12 µg/mL (≈ 2.16 µM)		3.12 µg/mL (≈ 2.16 µM)		6.25 µg/mL (≈ 4.31 µM)	3.12 µg/mL (≈ 2.16 µM)	3.12 µg/mL (≈ 2.16 µM)	
